Test results reported in patent publication WO2015077660A1, “Enzyme reactor system enabling enhanced enzymatic digestion, analyte solubility and improved mass spectrometric compatibility” (priority 2013, dated 2014).

Assays:
trypsin [1] = assay: Insulin digestion in immobilized enzyme reactor, buffer screening (Table 7); type: biochemical, porcine; conditions: IMER; for Digested / Peptide / Undigested: 70°C, 60 s; for digestion efficiency: CaCl2 as high as 500 mM
trypsin [2] = assay: Human IgG digestion in response to calcium concentration (Table 11); type: biochemical, porcine; conditions: CaCl2 above 1 mM
porcine trypsin = test system: T1, porcine trypsin; assay: Insulin digestion by trypsin in solution, buffer screening (Table 9); type: biochemical; conditions: for Digested / Peptide / Undigested: 37°C, 18 h; for trypsin digestion: high concentrations, as high as 500 mM
T1 construct: purchased

BSA = assay: Screen of additives for prevention of aggregation (Table 5); type: physicochemical, bovine; conditions: 12.5 mg/mL BSA, 70°C, four columns in printed order, heads missing
[3] = Plasma digestion with buffer/additive combinations, aggregation; type: physicochemical, beagle; conditions: 10% in 50mM TBS, 100mM CaCl2; 90 minutes

[Ca+2].[Cl-].[Cl-] [CaCl2, calcium chloride]
Digested (trypsin [1]; 0.05M): 2725600
Peptide (trypsin [1]; 0.05M): 1172085
Undigested (trypsin [1]; 0.05M): 802494
Digested (trypsin [1]; 0.1M): 2844924
Peptide (trypsin [1]; 0.1M): 1221898
Undigested (trypsin [1]; 0.1M): 609138
Digested (trypsin [1]; 0.25M): 2950068
Peptide (trypsin [1]; 0.25M): 1264212
Undigested (trypsin [1]; 0.25M): 571246
Digested (trypsin [1]; 0.5M): 3031625
Peptide (trypsin [1]; 0.5M): 1290650
Undigested (trypsin [1]; 0.5M): 234332
Digested (trypsin [1]; 1M): 3066738
Peptide (trypsin [1]; 1M): 1263872
Undigested (trypsin [1]; 1M): 16129
digestion efficiency (trypsin [1]): An increase in digestion was observed
digestion efficiency (trypsin [1]; listed as calcium chloride): digestion efficiency increased dramatically
enzyme efficiency (trypsin [2]): increase enzyme efficiency
Digested (porcine trypsin; 0.05M): 2007752
Peptide (porcine trypsin; 0.05M): 860714
Undigested (porcine trypsin; 0.05M): 2746822
Digested (porcine trypsin; 0.1M): 2377399
Peptide (porcine trypsin; 0.1M): 1074482
Undigested (porcine trypsin; 0.1M): 2139571
Digested (porcine trypsin; 0.25M): 3241428
Peptide (porcine trypsin; 0.25M): 1430859
Undigested (porcine trypsin; 0.25M): 2885626
Digested (porcine trypsin; 0.5M): 3340960
Peptide (porcine trypsin; 0.5M): 1474912
Undigested (porcine trypsin; 0.5M): 856015
Digested (porcine trypsin; 1M): 3203158
Peptide (porcine trypsin; 1M): 1344334
Undigested (porcine trypsin; 1M): 949033
trypsin digestion (porcine trypsin): An increase in digestion was observed
trypsin digestion (porcine trypsin; listed as calcium chloride): dramatically improve trypsin digestion

CN(C)C=O [DMF, dimet ylformamide]
aggregation (BSA; 20%): Y and Υ

C[C@H](CCC(=O)O)[C@H]1CC[C@H]2[C@@H]3CC[C@@H]4C[C@H](O)CC[C@]4(C)[C@H]3C[C@H](O)[C@]12C [Deoxycholate]
aggregation (BSA; additive concentration not given): Υ

NC=O [Formamide]
aggregation [3]: significant aggregation
Digested (trypsin [1]; 5%): 1424720
Peptide (trypsin [1]; 5%): 580956
Undigested (trypsin [1]; 5%): 3061491
Digested (trypsin [1]; 10%): 745680
Peptide (trypsin [1]; 10%): 305599
Undigested (trypsin [1]; 10%): 3827192
Digested (trypsin [1]; 15%): 375288
Peptide (trypsin [1]; 15%): 155245
Undigested (trypsin [1]; 15%): 4129486
Digested (trypsin [1]; 20%): 200621
Peptide (trypsin [1]; 20%): 82549
Undigested (trypsin [1]; 20%): 4430620
Digested (porcine trypsin; 5%): 1126069
Peptide (porcine trypsin; 5%): 500704
Undigested (porcine trypsin; 5%): 3871868
Digested (porcine trypsin; 10%): 1509456
Peptide (porcine trypsin; 10%): 693291
Undigested (porcine trypsin; 10%): 4196754
Digested (porcine trypsin; 15%): 973971
Peptide (porcine trypsin; 15%): 421130
Undigested (porcine trypsin; 15%): 4281392
Digested (porcine trypsin; 20%): 470938
Peptide (porcine trypsin; 20%): 194156
Undigested (porcine trypsin; 20%): 4620417
